# Values quoted from earlier work as cited in patent US20130195797A1, “HIGH POTENCY FORMULATIONS OF VX-950” (VERTEX PHARMACEUTICALS INCORPORATED, priority 2012, published 2013).
# Test system: HCV
# Conditions: clinical trials
smiles,measurement,value
CCC[C@H](NC(=O)[C@@H]1[C@H]2CCC[C@H]2CN1C(=O)[C@@H](NC(=O)[C@@H](NC(=O)c1cnccn1)C1CCCCC1)C(C)(C)C)C(=O)C(=O)NC1CC1 [VX-950],antiviral activity / effective therapy against HCV,has shown antiviral activity
